Assay results reported in patent publication US10131652B2, “Pyrimidinyloxy benzene derivatives as herbicides” (E. I. DU PONT DE NEMOURS AND COMPANY, priority 2014, dated 2018).

Legend:
Type in all cases: in vivo
[1] = test system: giant foxtail (Setaria faberii); experiment: Test B pre-/postemergence plant response
Procedure, shortened: (§1)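 Greenhouse pots, loam/sand soil; compound formulated with surfactant in non-phytotoxic solvent. Preemergence soil spray and postemergence spray at 1–2 leaf stage run simultaneously. Visual injury, 0–100, about 10 days post-treatment.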

[2] = test system: corn (Zea mays); experiment: Test B pre-/postemergence plant response; conditions: 0 to 100 scale, 0 no effect, 100 complete control
Procedure, shortened: as §1

[3] = test system: pigweed (Amaranthus retroflexus); experiment: Test B pre-/postemergence plant response
Procedure, shortened: as §1

[4] = test system: wheat (Triticum aestivum); experiment: Test B pre-/postemergence plant response; conditions: 0 to 100 scale, 0 no effect, 100 complete control
Procedure, shortened: as §1

[5] = test system: barnyardgrass (Echinochloa crus-galli); experiment: Test B pre-/postemergence plant response
Procedure, shortened: as §1

[6] = test system: soybean (Glycine max); experiment: Test D pre-/postemergence plant response
Procedure, shortened: (§2)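 Plants are held in a greenhouse 13 to 15 days after spraying, then injury is rated by eye relative to controls on a 0 to 100 scale. Treatments are preemergence on freshly sown loam/sand pots or postemergence at 1- to 4-leaf stage in peat-based medium; surfactant-containing solvent formulation.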

[7] = test system: waterhemp (common waterhemp, Amaranthus rudis); experiment: Test D pre-/postemergence plant response
Procedure, shortened: as §2

[8] = test system: velvetleaf (Abutilon theophrasti); experiment: Test D pre-/postemergence plant response
Procedure, shortened: as §2

[9] = test system: morningglory (Ipomoea coccinea); experiment: Test D pre-/postemergence plant response
Procedure, shortened: as §2

[10] = test system: winter wheat (Triticum aestivum); experiment: Test D pre-/postemergence plant response
Procedure, shortened: as §2

[11] = test system: johnsongrass (Sorghum halepense); experiment: Test D pre-/postemergence plant response
Procedure, shortened: as §2

[12] = test system: lambsquarters (Chenopodium album); experiment: Test D pre-/postemergence plant response
Procedure, shortened: as §2

[13] = test system: ducksalad (Heteranthera limosa); experiment: Test C flooded paddy test plant response; conditions: Flood, 250 g ai/ha; scale of 0 to 100 where 0 is no effect and 100 is complete control; 13 to 15 days
Procedure, shortened: (§3)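 2-leaf plants; flood 3 cm, cpd into paddy water; greenhouse 13–15 d; visual score vs untreated, 0 = no effect, 100 = complete control; dash = no result.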

[14] = test system: small-flower umbrella sedge (Cyperus difformis); experiment: Test C flooded paddy test plant response; conditions: Flood, 250 g ai/ha; scale of 0 to 100 where 0 is no effect and 100 is complete control; 13 to 15 days
Procedure, shortened: as §3

[15] = test system: rice (Oryza sativa); experiment: Test C flooded paddy test plant response; conditions: Flood, 250 g ai/ha; scale of 0 to 100 where 0 is no effect and 100 is complete control; 13 to 15 days
Procedure, shortened: as §3

[16] = test system: barnyardgrass (Echinochloa crus-galli); experiment: Test C flooded paddy test plant response; conditions: Flood, 250 g ai/ha; scale of 0 to 100 where 0 is no effect and 100 is complete control; 13 to 15 days
Procedure, shortened: as §3

[17] = 31 g ai/ha, Postemergence, 0 to 100 scale, 0 no effect, 100 complete control
[18] = 31 g ai/ha, Preemergence, 0 to 100 scale where 0 is no effect and 100 is complete control
[19] = 125 g ai/ha, postemergence, 0 to 100 scale, 0 no effect, 100 complete control
[20] = Preemergence, 125 g ai/ha, 0 to 100 scale where 0 is no effect and 100 is complete control
[21] = Postemergence, 16 g ai/ha, scale 0 to 100 (0 no effect, 100 complete control)
[22] = Postemergence, 31 g ai/ha, scale 0 to 100 (0 no effect, 100 complete control)
[23] = Postemergence, 62 g ai/ha, scale 0 to 100, 0 no effect, 100 complete control
[24] = Postemergence, 125 g ai/ha, scale 0 to 100, 0 no effect, 100 complete control
[25] = Preemergence, 16 g ai/ha, scale 0 to 100 (0 no effect, 100 complete control)
[26] = Preemergence, 31 g ai/ha, scale 0 to 100 (0 no effect, 100 complete control)
[27] = Preemergence, 62 g ai/ha, scale 0 to 100 (0 no effect, 100 complete control)

Fc1cccc(Oc2ncc(Br)cn2)c1-c1cc(C(F)F)on1 [Compound 118]
10: Plant response rating, Johnsongrass [11, 23] | Plant response rating, Johnsongrass [11, 25]
98: Plant response rating, Waterhemp [7, 24] | Plant response rating (scale 0 to 100), Lambsquarters ([12]; Preemergence, 125 g ai/ha)
100: Plant response rating, Foxtail, Giant [1, 18] | Plant response rating, Foxtail, Giant [1, 19] | Plant response rating, Foxtail, Giant [1, 20] | Plant response rating, Corn ([2]; 125 g ai/ha, postemergence) | Plant response rating, Pigweed [3, 17] | Plant response rating, Pigweed [3, 18] | Plant response rating, Pigweed [3, 19] | Plant response rating, Barnyardgrass [5, 19] | Plant response rating, Barnyardgrass [5, 20] | Plant response rating (scale 0 to 100), Waterhemp ([7]; Preemergence, 125 g ai/ha) | Plant response rating, Waterhemp [7, 25] | Plant response rating, Waterhemp [7, 26] | Plant response rating, Waterhemp [7, 27] | Plant response rating (scale 0 to 100), Velvetleaf ([8]; Preemergence, 125 g ai/ha) | Plant response rating, Velvetleaf [8, 27] | Plant response rating (scale 0 to 100), Johnsongrass ([11]; Preemergence, 125 g ai/ha) | Ducksalad plant response rating [13] | Sedge, Umbrella plant response rating [14]
75: Soybean plant response rating [6, 21] | Plant response rating, Soybean [6, 26] | Velvetleaf plant response rating [8, 22] | Lambsquarters plant response rating [12, 21]
65: Velvetleaf plant response rating [8, 21]
0: Wheat plant response rating [10, 21] | Wheat plant response rating [10, 22] | Plant response rating, Wheat [10, 23] | Plant response rating, Wheat [10, 25] | Plant response rating, Wheat [10, 26] | Plant response rating, Wheat [10, 27]
80: Plant response rating, Soybean [6, 25] | Plant response rating, Soybean [6, 27] | Plant response rating, Velvetleaf [8, 25] | Plant response rating, Morningglory [9, 24]
70: Plant response rating, Barnyardgrass [5, 17] | Plant response rating, Barnyardgrass [5, 18] | Plant response rating, Velvetleaf [8, 23] | Plant response rating, Velvetleaf [8, 26] | Plant response rating, Johnsongrass [11, 26]
20: Plant response rating, Wheat ([4]; 31 g ai/ha, Postemergence)
95: Plant response rating (scale 0 to 100), Soybean ([6]; Preemergence, 125 g ai/ha) | Plant response rating, Waterhemp [7, 23] | Plant response rating, Lambsquarters [12, 24] | Plant response rating, Lambsquarters [12, 27]
5: Plant response rating, Morningglory [9, 26] | Plant response rating, Wheat [10, 24] | Plant response rating (scale 0 to 100), Wheat ([10]; Preemergence, 125 g ai/ha) | Johnsongrass plant response rating [11, 21] | Johnsongrass plant response rating [11, 22]
60: Plant response rating, Wheat ([4]; 125 g ai/ha, postemergence) | Soybean plant response rating [6, 22] | Plant response rating, Soybean [6, 23]
50: Plant response rating, Corn ([2]; 31 g ai/ha, Postemergence) | Barnyardgrass plant response rating [16]
85: Waterhemp plant response rating [7, 21] | Plant response rating, Velvetleaf [8, 24] | Morningglory plant response rating [9, 21] | Morningglory plant response rating [9, 22] | Plant response rating, Morningglory [9, 23] | Plant response rating, Morningglory [9, 27] | Plant response rating, Johnsongrass [11, 27] | Lambsquarters plant response rating [12, 22]
30: Plant response rating, Morningglory [9, 25]
45: Plant response rating, Johnsongrass [11, 24] | Rice plant response rating [15]
90: Plant response rating, Foxtail, Giant [1, 17] | Plant response rating, Soybean [6, 24] | Waterhemp plant response rating [7, 22] | Plant response rating (scale 0 to 100), Morningglory ([9]; Preemergence, 125 g ai/ha) | Plant response rating, Lambsquarters [12, 23] | Plant response rating, Lambsquarters [12, 25] | Plant response rating, Lambsquarters [12, 26]
